Experimental data from PubChem BioAssay AID248 (DTP/NCI, 2004).
Several values for one entry are separate records, joined by “and”; a condition that tells them apart may be missing. Equal values may be shown once. Inconclusive results and toxic doses are left out. Cut-off read from the data, not from the text of the source: active = T/C of 150% or more; inactive = T/C below 125%.

System: L1210 leukemia ip in BDF1 mice, survival T/C
Assay: NCI In Vivo Anticancer Drug Screen. Data for tumor model L1210 Leukemia (intraperitoneal) in B6D2F1 (BDF1) mice
Details: endpoint: mean survival time, higher = longer survival
In short: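 In this screen, tumor-bearing mice given compound are compared to those given vehicle, and their survival values are reported as a treated-to-control quotient.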

[1] = dose: 5.0 mg/kg/injection, schedule: Q01DX001 (ip), vehicle: saline
[2] = dose: 10.0 mg/kg/injection, schedule: Q01DX001 (ip), vehicle: saline
[3] = dose: 20.0 mg/kg/injection, schedule: Q01DX001 (ip), vehicle: saline
[4] = dose: 40.0 mg/kg/injection, schedule: Q01DX001 (ip), vehicle: saline
[5] = dose: 50.0 mg/kg/injection, schedule: Q01DX001 (ip), vehicle: saline with Tween-80
[6] = dose: 100.0 mg/kg/injection, schedule: Q01DX001 (ip), vehicle: saline with Tween-80
[7] = dose: 100.0 mg/kg/injection, schedule: Q04DX003 (ip), vehicle: Klucel (hydroxypropylcellulose) (HPC)
[8] = dose: 200.0 mg/kg/injection, schedule: Q04DX003 (ip), vehicle: Klucel (hydroxypropylcellulose) (HPC)
[9] = dose: 400.0 mg/kg/injection, schedule: Q04DX003 (ip), vehicle: Klucel (hydroxypropylcellulose) (HPC)
[10] = dose: 100.0 mg/kg/injection, schedule: Q01DX001 (ip), vehicle: carboxymethylcellulose (CMC)
[11] = dose: 200.0 mg/kg/injection, schedule: Q01DX001 (ip), vehicle: carboxymethylcellulose (CMC)
[12] = dose: 400.0 mg/kg/injection, schedule: Q01DX001 (ip), vehicle: carboxymethylcellulose (CMC)
[13] = dose: 100.0 mg/kg/injection, schedule: Q04DX002 (ip), vehicle: saline
[14] = dose: 200.0 mg/kg/injection, schedule: Q04DX002 (ip), vehicle: saline
[15] = dose: 100.0 mg/kg/injection, schedule: Q01DX001 (ip), vehicle: saline
[16] = dose: 200.0 mg/kg/injection, schedule: Q01DX001 (ip), vehicle: saline
[17] = dose: 100.0 mg/kg/injection, schedule: Q01DX001 (ip), vehicle: Klucel (hydroxypropylcellulose) (HPC)
[18] = dose: 200.0 mg/kg/injection, schedule: Q01DX001 (ip), vehicle: Klucel (hydroxypropylcellulose) (HPC)
[19] = dose: 400.0 mg/kg/injection, schedule: Q01DX001 (ip), vehicle: Klucel (hydroxypropylcellulose) (HPC)
[20] = dose: 50.0 mg/kg/injection, schedule: Q01DX009 (ip), vehicle: saline with Tween-80
[21] = dose: 100.0 mg/kg/injection, schedule: Q01DX009 (ip), vehicle: saline with Tween-80
[22] = dose: 200.0 mg/kg/injection, schedule: Q01DX009 (ip), vehicle: saline with Tween-80
[23] = dose: 100.0 mg/kg/injection, schedule: Q04DX003 (ip), vehicle: saline
[24] = dose: 200.0 mg/kg/injection, schedule: Q04DX003 (ip), vehicle: saline
[25] = dose: 400.0 mg/kg/injection, schedule: Q04DX003 (ip), vehicle: saline

Measured: T/C

CC1(C)N=C(N)N=C(N)N1c1cccc(CCCCc2ccccc2)c1
inactive: [1] 86 % of control | [2] 92 % of control | [3] 103 % of control | dose: 25.0 mg/kg/injection, schedule: Q01DX001 (ip), vehicle: saline with Tween-80 97 % of control | [4] 92 % of control | [5] 104 % of control | dose: 50.0 mg/kg/injection, schedule: Q01DX001 (ip), vehicle: saline 112 % of control | [6] 106 % of control

CC(=O)Nc1ccc(C)c(NC(C)=O)c1
inactive: [7] 96 % of control | [8] 96 % of control | [9] 96 % of control

CCCC(OC(C)=O)C(C)[N+](=O)[O-] (centres undefined)
inactive: [5] 96 % of control | [6] 92 % of control | dose: 200.0 mg/kg/injection, schedule: Q01DX001 (ip), vehicle: saline with Tween-80 103 % of control

COC(=O)/C=C\C=C\C(=O)OC
inactive: dose: 50.0 mg/kg/injection, schedule: Q01DX001 (ip), vehicle: carboxymethylcellulose (CMC) 95 % of control | [10] 94 % of control | [11] 98 % of control | [12] 98 % of control

CC[N+]1(CC)CC[N+](CC)(CC)CC1 (tested in a mixture with another compound)
inactive: [13] 102 % of control | [14] 97 % of control | dose: 400.0 mg/kg/injection, schedule: Q04DX002 (ip), vehicle: saline 102 % of control

CCOC1CCN(CCCn2c3ccccc3c3ccc(C(C)=O)cc32)CC1
inactive: [15] 95 % of control | [16] 92 % of control

NOC(=O)c1ccccc1
inactive: [13] 105 % of control | [14] 102 % of control

Nc1ncnc2nc(N=Nc3ccc(S(N)(=O)=O)cc3)[nH]c12
inactive: [7] 108 % of control | [8] 102 % of control | [9] 100 % of control

Cc1c(C)c(O)c2c(c1C)C(C)C(=O)OC2=O (centres undefined)
inactive: [1] 104 % of control | [2] 100 % of control | [3] 92 % of control | [4] 97 % of control

O=CC(O)C(O)C(OC1OC(CO)C(O)C(O)C1O)C(O)CO (centres undefined)
inactive: dose: 100.0 mg/kg/injection, schedule: Q04DX002 (ip), vehicle: carboxymethylcellulose (CMC) 93 % of control and 117 % of control | dose: 100.0 mg/kg/injection, schedule: Q04DX003 (ip), vehicle: carboxymethylcellulose (CMC) 99 % of control | dose: 200.0 mg/kg/injection, schedule: Q04DX002 (ip), vehicle: carboxymethylcellulose (CMC) 93 % of control and 92 % of control | dose: 200.0 mg/kg/injection, schedule: Q04DX003 (ip), vehicle: carboxymethylcellulose (CMC) 96 % of control | dose: 400.0 mg/kg/injection, schedule: Q04DX002 (ip), vehicle: carboxymethylcellulose (CMC) 100 % of control and 86 % of control | dose: 400.0 mg/kg/injection, schedule: Q04DX003 (ip), vehicle: carboxymethylcellulose (CMC) 87 % of control

C=C1C(C(=O)OCC)C1C(=O)OCC (centres undefined)
inactive: dose: 50.0 mg/kg/injection, schedule: Q04DX002 (ip), vehicle: saline with Tween-80 98 % of control | dose: 100.0 mg/kg/injection, schedule: Q04DX002 (ip), vehicle: saline with Tween-80 103 % of control | dose: 200.0 mg/kg/injection, schedule: Q04DX002 (ip), vehicle: saline with Tween-80 106 % of control | dose: 400.0 mg/kg/injection, schedule: Q04DX002 (ip), vehicle: saline with Tween-80 98 % of control

CCSC(=O)n1nc(Cl)c2cc([N+](=O)[O-])ccc21
inactive: [10] 93 % of control | [11] 102 % of control | [12] 93 % of control

COc1cc2c(cc1OC)C1CCN3CCCC3N1CC2 (centres undefined)
inactive: dose: 25.0 mg/kg/injection, schedule: Q01DX009 (ip), vehicle: Klucel (hydroxypropylcellulose) (HPC) 102 % of control | dose: 50.0 mg/kg/injection, schedule: Q01DX009 (ip), vehicle: Klucel (hydroxypropylcellulose) (HPC) 96 % of control | dose: 100.0 mg/kg/injection, schedule: Q01DX009 (ip), vehicle: Klucel (hydroxypropylcellulose) (HPC) 98 % of control | [7] 96 % of control

CCCCNc1nnnn1CCCC
inactive: dose: 100.0 mg/kg/injection, schedule: Q04DX003 (ip), vehicle: acetone 98 % of control | dose: 200.0 mg/kg/injection, schedule: Q04DX003 (ip), vehicle: acetone 96 % of control

O=C(Nc1ccc(S(=O)(=O)Nc2ccc(N=Nc3ccc(S(=O)(=O)Nc4nccs4)cc3)cc2)cc1)C(SC1=NC=NC2=NC=NC21)SC1=NC=NC2=NC=NC21 (centres undefined)
inactive: dose: 75.0 mg/kg/injection, schedule: Q04DX003 (ip), vehicle: saline 100 % of control | dose: 150.0 mg/kg/injection, schedule: Q04DX003 (ip), vehicle: saline 96 % of control | dose: 300.0 mg/kg/injection, schedule: Q04DX003 (ip), vehicle: saline 98 % of control

O=C1NCN(c2ccccc2)C12CCN(Cc1nc3cc([N+](=O)[O-])ccc3n1-c1ccccc1)CC2
inactive: [17] 86 % of control | [18] 93 % of control | [19] 99 % of control

CN(C)C(=S)SCCC(N)C(=O)O (centres undefined)
inactive: [20] 90 % of control | [21] 101 % of control | [22] 96 % of control

CCCCOc1ccc(CCOC(C)=O)cc1
inactive: dose: 100.0 mg/kg/injection, schedule: Q04DX002 (ip), vehicle: Klucel (hydroxypropylcellulose) (HPC) 112 % of control | dose: 200.0 mg/kg/injection, schedule: Q04DX002 (ip), vehicle: Klucel (hydroxypropylcellulose) (HPC) 108 % of control | dose: 400.0 mg/kg/injection, schedule: Q04DX002 (ip), vehicle: Klucel (hydroxypropylcellulose) (HPC) 104 % of control

O=C(CC(NC(=O)OCc1ccccc1)C(=O)OCc1ccccc1)OCc1ccccc1 (centres undefined)
inactive: dose: 200.0 mg/kg/injection, schedule: Q01DX009 (ip), vehicle: Klucel (hydroxypropylcellulose) (HPC) 88 % of control | dose: 400.0 mg/kg/injection, schedule: Q01DX009 (ip), vehicle: Klucel (hydroxypropylcellulose) (HPC) 89 % of control

COc1ccc(/C=C(\CCCOC(C)=O)[N+](=O)[O-])cc1OC
inactive: [10] 104 % of control | [11] 101 % of control

CC1(CO)CC2CCC1C2 (centres undefined)
inactive: [7] 104 % of control | [8] 108 % of control | [9] 106 % of control

COc1ccc(C(=O)c2ccc([N+](=O)[O-])cc2)c(OC)c1
inactive: [17] 101 % of control | [18] 111 % of control

NCc1c(Cl)c(Cl)c(CN)c(Cl)c1Cl
inactive: [20] 96 % of control | dose: 50.0 mg/kg/injection, schedule: Q04DX003 (ip), vehicle: saline with Tween-80 92 % of control | [21] 94 % of control | dose: 100.0 mg/kg/injection, schedule: Q04DX003 (ip), vehicle: saline with Tween-80 92 % of control | [22] 88 % of control | dose: 200.0 mg/kg/injection, schedule: Q04DX003 (ip), vehicle: saline with Tween-80 105 % of control

CN(C)CCSS(=O)(=O)O
inactive: [15] 93 % of control | [16] 96 % of control | dose: 400.0 mg/kg/injection, schedule: Q01DX001 (ip), vehicle: saline 102 % of control

Cc1ccc(S(=O)(=O)NCCCc2c(C)nc(N)n(Cc3cccc([N+](=O)[O-])c3)c2=O)cc1
inactive: [17] 103 % of control | [18] 91 % of control | [19] 103 % of control

C=CCC1CCCCC1
inactive: [10] 104 % of control | [11] 105 % of control | [12] 104 % of control

O=C(COc1ccc(Cl)cc1Cl)Nc1ncn[nH]1
inactive: [17] 101 % of control | [18] 104 % of control | [19] 95 % of control

CSc1ncc(CO)c(NC(C)(C)C)n1
inactive: [23] 96 % of control | [24] 100 % of control | [25] 100 % of control

CN(N=O)C(=O)NC1C(O)C(CO)OC1n1ccc(=O)[nH]c1=O (centres undefined)
inactive: [23] 98 % of control | [24] 96 % of control | [25] 102 % of control

Ic1ccc(NC2=NCCN2)c2ccccc12
inactive: dose: 25.0 mg/kg/injection, schedule: Q04DX003 (ip), vehicle: Klucel (hydroxypropylcellulose) (HPC) 111 % of control | dose: 50.0 mg/kg/injection, schedule: Q04DX003 (ip), vehicle: Klucel (hydroxypropylcellulose) (HPC) 100 % of control | [7] 93 % of control and 91 % of control
